Where two headings read alike, the source gives them in different places.
Tests used:
[1] = molecular target: T1, CB2 receptor (RBL-2H3 cell membranes) (Rattus norvegicus, UniProt Q9QZN9); experiment: Competitive displacement of 3H-WIN 55,212-2 binding to RBL-2H3 cell membranes; details: for inhibition at 10 µM: read-out: % Displacement
T1 construct: Preparation of Plasmatic Membranes of RBL-2H3 Cells; endogenous in cells; host or cells: RBL-2H3 (rat basophilic leukemia) cell membranes
T1 sequence (Q9QZN9 1-360): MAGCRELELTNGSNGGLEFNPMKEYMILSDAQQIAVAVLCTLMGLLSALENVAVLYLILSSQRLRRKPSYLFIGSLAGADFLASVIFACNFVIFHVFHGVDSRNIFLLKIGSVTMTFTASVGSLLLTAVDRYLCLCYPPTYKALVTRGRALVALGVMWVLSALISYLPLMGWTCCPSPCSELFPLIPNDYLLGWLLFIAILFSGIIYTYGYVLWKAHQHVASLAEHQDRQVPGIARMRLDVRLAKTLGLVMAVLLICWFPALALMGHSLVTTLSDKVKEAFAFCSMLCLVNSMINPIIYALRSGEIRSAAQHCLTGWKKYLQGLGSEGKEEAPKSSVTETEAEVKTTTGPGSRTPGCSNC
Protocol: RBL-2H3 cells (100×10^6), frozen at -80° C., were thawed with 4 ml of Tris-HCl buffer solution 50 mM (pH 7.4), added with 0.25% w/v of Tripsin inhibitor, TYPE II-S: SOY BEAN® (distributed by Sigma). The cells were resuspended in the buffer and homogenized. The homogenate was centrifuged at 1500×g at 4° C. for 10 min. The supernatant obtained was collected and the precipitate was resuspended in 4 ml of the previous buffer. The resuspended precipitate was homogenized and centrifuged again at 1500×g at 4° C. for 5-10 min. The resulting supernatant was combined to the supernatant previously obtained and centrifuged at 5000×g for 10 min. After centrifugation, the supernatant was collected and further centrifuged at 40,000×g at 4° C. for 30 min. The resulting precipitate was resuspended in 0.5 ml of the buffer solution described above, with addition of 1% Bovine Serum Albumin fatty acid free. The obtained suspension was centrifuged at 40,000×g at 4° C. for 30 min. The resulting precipitate was collected and resuspended in buffer solution containing 50 mM Tris HCl, 1 mM Tris-EDTA, 3 mM MgCl2, pH 7.4, in order to obtain a proteic concentration of 1 μg/μl approx. This preparation may be used fresh, or frozen at -80° C. and utilized within few days.
Non-radioactive WIN 55,212-2 (1 μM) was used to inhibit specific binding. […] The competitors were added to the binding mixture prior to the labelled ligand. In both cases, for an evaluation of the reference specific binding, ethanol and DMSO were added at the same final concentration to the total binding and to the aspecific one, also in the absence of competitors.
WIN 55,212-2 was used at a concentration of 3 μM, whereas the other compounds were used at a concentration of 10 μM.
Incubation was carried out in the presence of 1% DMSO. The values of Inhibitory Concentration 50 (IC50) are expressed as means ± SEM, after the number of experiments reported hereinbelow.

RBL-2H3 cells = experiment: Inhibition of 3H-serotonin release induced by ADNP/DNP-HSA immunogenic stimulation in RBL-2H3 cells; assay type: cell-based, rat; details: for 3H-serotonin net release inhibition (%): + anandamide (12.5 μM) (Table 4); for functional effect following receptor activation (serotonin release): result in words; for inhibition at 100 µM: 100 μM (Table 8); for EC50: 15 minutes release period (Table 9)
[2] = Solubility in water and organic solvents; details: for solubility in water: result in words
[3] = molecular target: T1, CB2 receptor (RBL-2H3 cell membranes); experiment: Competitive displacement of 3H-WIN 55,212-2 binding to RBL-2H3 cell membranes; details: competitor 10 μM; 0.1% DMSO
[4] = Rattus norvegicus, RBL-2H3, 0.25 h, read-out: 3H-serotonin net release (%)
[5] = read-out: ED50, inhibition of 3H-serotonin release, + anandamide (12.5 μM) (Table 5), 15 min
[6] = dmso, organic solvent or mixture
[7] = ethanol, organic solvent or mixture
[8] = Rattus norvegicus, RBL-2H3, 0.25 h, 0.1% DMSO and 0.1% ethanol (Table 3), read-out: ED50 (the source's name)
[9] = Rattus norvegicus, RBL-2H3, read-out: 3H-serotonin net release inhibition (%)
[10] = Rattus norvegicus, RBL-2H3, 0.25 h, 0.1% DMSO and 0.1% ethanol (Table 3), read-out: 3H-serotonin net release (%)
[11] = Rattus norvegicus, RBL-2H3, read-out: 3H-serotonin release inhibition %, 0.2% DMSO
[12] = Rattus norvegicus, RBL-2H3, read-out: 3H-serotonin release inhibition %, 1% DMSO
[13] = Rattus norvegicus, RBL-2H3, read-out: EC50, concentration inhibiting by 50% the net release of 3H serotonin, 0.2% DMSO
[14] = Rattus norvegicus, RBL-2H3, read-out: EC50, concentration inhibiting by 50% the net release of 3H serotonin, 1% DMSO
[15] = hot ethanol, organic solvent or mixture
[16] = Rattus norvegicus, RBL-2H3, read-out: 3H-serotonin release inhibition %, 0.2% DMSO, 50 μM (Table 8)

## CCCCCCC(C)(C)c1cc(O)c2c(c1)OC(C)(C)[C@@H]1CCC(=O)C[C@@H]21 (relative stereo) [Nabilone, 3-(1,1-dimethylheptyl)-6,6a,7,8,10,10a-hexahydro-1-hydroxy-6,6-dimethyl-9H-dibenzo-[b,d]-pyran-9-one, reference compound]
[1]
  IC50: 0.0026 ± 0.0014 µM
  inhibition at 10 µM: 100%
[1]; result in words
  binding to the peripheral receptor: able to bind to the receptor and to compete
RBL-2H3 cells; 5 μM
  3H-serotonin net release inhibition (%): 50%
RBL-2H3 cells; [4]
  activity at 10 µM: 0%
RBL-2H3 cells; Rattus norvegicus, RBL-2H3, 0.25 h, read-out: ED50
  IC50: 2.8 µM
RBL-2H3 cells; Rattus norvegicus, RBL-2H3, read-out: 3H-serotonin net release inhibition (%), 5 μM, - anandamide (Table 4)
  inhibition at 5 µM: 90%
RBL-2H3 cells; [5]
  IC50: 5 µM
RBL-2H3 cells
  functional effect following receptor activation (serotonin release): able to inhibit, in a concentration-dependent way, RBL cells immunogenic activation

## C=C(C)[C@@H]1CCC(C)=C[C@H]1c1c(O)cc(CCCCC)cc1O [Cannabidiol, cannabidiol, reference compound]
[1]
  IC50: > 1 µM

## CCCCCCCCCCCCCCCC(=O)N[C@@H](CO)c1ccccc1 [Example 1, N-palmitoyl-[(R)-2-amino-2-phenylethanol]]
[2]; [6]
  solubility: > 10000 µg/mL
[2]; [7]
  solubility: > 10000 µg/mL
[2]
  solubility in water: scarcely soluble
[1]
  IC50: 0.0004 µM
  inhibition at 10 µM: 77%
RBL-2H3 cells; 3 μM
  3H-serotonin net release inhibition (%): 39%
RBL-2H3 cells; Rattus norvegicus, RBL-2H3, 0.25 h, 3 μM, 0.1% DMSO and 0.1% ethanol (Table 3), read-out: 3H-serotonin net release (%)
  activity at 3 µM: 0%
RBL-2H3 cells; [8]
  IC50: 0.6 µM
RBL-2H3 cells; [9]
  inhibition at 3 µM: 100%
RBL-2H3 cells; co-incubation with anandamide, in words
  effect of anandamide co-incubation on the ability to inhibit serotonin release: reduces the ability
RBL-2H3 cells; [5]
  IC50: 4 µM
RBL-2H3 cells
  functional effect following receptor activation (serotonin release): can inhibit the effects induced by mast cell activation and exert an effect that is higher than or comparable to the one of cannabinoids
[3]
  Specific binding: 325

## CCCCCC/C=C\CCCCCCCC(=O)NCCO [Example 19, N-(2-hydroxyethyl)-palmitoleylamide]
[2]; [6]
  solubility: > 10000 µg/mL
[2]; [7]
  solubility: > 10000 µg/mL
[2]
  solubility in water: scarcely soluble
[1]
  inhibition at 10 µM: 100%
RBL-2H3 cells; [10]
  activity at 100 µM: 100%

## CCCCCCCCCCCC(=O)NCCO [Example 22, N-(2-hydroxyethyl)-lauroylamide]
[2]; chloroform, organic solvent or mixture
  solubility: > 10000 µg/mL
[2]; [6]
  solubility: > 10000 µg/mL
[2]
  solubility in water: scarcely soluble
[1]; RBL-2H3 cell membranes, 1% DMSO, means ± SEM
  IC50: 0.0181 µM
[1]
  inhibition at 10 µM: 72%
RBL-2H3 cells; [11]
  inhibition at 100 µM: 100%
RBL-2H3 cells; [12]
  inhibition at 100 µM: 91%
RBL-2H3 cells; [13]
  EC50: 35 µM
RBL-2H3 cells; [14]
  EC50: 11 µM

## O=C(/C=C/CCCCCCCCC(=O)NCCO)NCCO [Example 26, N,N'-bis(2-hydroxyethyl)-trans-2-dodecenediamide]
[2]; [6]
  solubility: > 10000 µg/mL
[2]; [7]
  solubility: > 10000 µg/mL
[2]; water
  solubility: > 10000 µg/mL
[1]
  inhibition at 10 µM: 72%
RBL-2H3 cells; 50 μM
  3H-serotonin net release inhibition (%): 48%
RBL-2H3 cells; Rattus norvegicus, RBL-2H3, 0.25 h, 50 μM, 0.1% DMSO and 0.1% ethanol (Table 3), read-out: 3H-serotonin net release (%)
  activity at 50 µM: 21%
RBL-2H3 cells; [8]
  IC50: 28 µM
RBL-2H3 cells; [11]
  inhibition at 100 µM: > 95%
RBL-2H3 cells; [12]
  inhibition at 100 µM: > 95%
RBL-2H3 cells; [9]
  inhibition at 50 µM: 79%
RBL-2H3 cells; [5]
  IC50: 50 µM
[3]
  Specific binding: 402

## CCCCCCCCCCCCCCCC(=O)NCCOP(=O)(O)O [Example 27, N-palmitoylethanolamide phosphate]
[2]; [6]
  solubility: > 10000 µg/mL
[2]; phosphate buffer, pH 7.4, aqueous buffer
  solubility: > 1000 µg/mL
[2]
  solubility in water: scarcely soluble
[1]
  IC50: 0.0076 µM
  inhibition at 10 µM: 42%
RBL-2H3 cells; 7.5 μM
  3H-serotonin net release inhibition (%): 46%
RBL-2H3 cells; Rattus norvegicus, RBL-2H3, 0.25 h, 7.5 μM, 0.1% DMSO and 0.1% ethanol (Table 3), read-out: 3H-serotonin net release (%)
  activity at 7.5 µM: 0%
RBL-2H3 cells; [8]
  IC50: 3.8 µM
RBL-2H3 cells; [9]
  inhibition at 7.5 µM: 100%
RBL-2H3 cells; [5]
  IC50: 9.5 µM
RBL-2H3 cells
  functional effect following receptor activation (serotonin release): can inhibit the effects induced by mast cell activation and exert an effect that is higher than or comparable to the one of cannabinoids
[3]
  Specific binding: 843

## C=CCCCCCCCCC(=O)NCCO [Example 28, N-(2-hydroxyethyl)-10-undecenoylamide]
[2]; [6]
  solubility: > 10000 µg/mL
[2]; [7]
  solubility: > 10000 µg/mL
[2]
  solubility in water: scarcely soluble
[1]
  inhibition at 10 µM: 77%
RBL-2H3 cells; [10]
  activity at 100 µM: 100%

## CCCCCCCCCCCCCCCC(=O)N1CCOCC1 [Example 29, N-palmitoyl-morpholine]
[2]; [6]
  solubility: > 10000 µg/mL
[2]; [15]
  solubility: > 10000 µg/mL
[2]
  solubility in water: scarcely soluble
RBL-2H3 cells; [16]
  inhibition at 50 µM: 36%
RBL-2H3 cells; Rattus norvegicus, RBL-2H3, read-out: 3H-serotonin release inhibition %, 1% DMSO, 30 μM (Table 8)
  inhibition at 30 µM: 88%
RBL-2H3 cells; [13]
  EC50: 42 µM
RBL-2H3 cells; [14]
  EC50: 3.5 µM

## CCCCCCCCCCCCCCCC(=O)N[C@H](C)CO [Example 30, N-palmitoyl-[R(-)-2-amino-1-propanol]]
[2]; [6]
  solubility: > 5000 µg/mL
[2]; [7]
  solubility: > 10000 µg/mL
[2]
  solubility in water: scarcely soluble
RBL-2H3 cells; [13]
  EC50: 3.9 µM

## CCCCCCCCCCCCCCCC(=O)N[C@@H](C)CO [Example 31, N-palmitoyl-[S(+)-2-amino-1-propanol]]
[2]; [6]
  solubility: > 5000 µg/mL
[2]; [7]
  solubility: > 10000 µg/mL
[2]
  solubility in water: scarcely soluble
RBL-2H3 cells; [13]
  EC50: 7.7 µM

## CCCCCCCCCCCCCCCC(=O)NC[C@@H](C)O [Example 32, N-palmitoyl-[R(-)-1-amino-2-propanol]]
[2]; [7]
  solubility: > 5000 µg/mL
[2]
  solubility in water: scarcely soluble
RBL-2H3 cells; [13]
  EC50: 0.73 µM

## CCCCCCCCCCCCCCCC(=O)NC[C@H](C)O [Example 33, N-palmitoyl-[S(+)-1-amino-2-propanol]]
[2]; [7]
  solubility: > 5000 µg/mL
[2]
  solubility in water: scarcely soluble
RBL-2H3 cells; [13]
  EC50: 4.7 µM

## CCCCCCCCCCCCCCCC(=O)NCCc1ccc(O)cc1 [Example 34, N-(p-hydroxy-phenylethyl)-palmitoylamide]
[2]; [6]
  solubility: > 10000 µg/mL
[2]; [7]
  solubility: > 10000 µg/mL
[2]
  solubility in water: scarcely soluble
RBL-2H3 cells; [13]
  EC50: 13 µM
RBL-2H3 cells; [14]
  EC50: 0.36 µM

## CCCCCCCCCCCCCCCC(=O)NCCOC [Example 35, N-(2-methoxy-ethyl)-palmitoylamide]
[2]; [7]
  solubility: > 10000 µg/mL
[2]
  solubility in water: scarcely soluble
RBL-2H3 cells; [13]
  EC50: 6.3 µM
RBL-2H3 cells; [14]
  EC50: 9.2 µM

## CCCCCCCCCCCC(=O)N1CCOCC1 [Example 36, N-lauroyl-morpholine]
[2]; [6]
  solubility: > 10000 µg/mL
[2]; [7]
  solubility: > 10000 µg/mL
[2]
  solubility in water: scarcely soluble
RBL-2H3 cells; [10]
  activity at 100 µM: 51%

## CCCCCCCCCCCCCCCCCC(=O)N1CCOCC1 [Example 37, N-stearoyl-morpholine]
[2]; [15]
  solubility: > 10000 µg/mL
[2]
  solubility in water: scarcely soluble
RBL-2H3 cells; [14]
  EC50: 15 µM

## CCCCCCCCCCCCCCCCCC(=O)NCc1ccc(O)c(OC)c1 [Example 39, N-(4-hydroxy-3-methoxybenzyl)-stearoylamide]
[2]; [6]
  solubility: > 10000 µg/mL
[2]; [7]
  solubility: > 10000 µg/mL
[2]
  solubility in water: scarcely soluble
RBL-2H3 cells; [4]
  activity at 50 µM: 68%
RBL-2H3 cells; [16]
  inhibition at 50 µM: 32%
RBL-2H3 cells; [12]
  inhibition at 100 µM: 67%

From patent US5990170A, “Therapeutic use of mono and bicarboxylic acid amides active at the peripheral cannabinoid receptor” (Lifegroup S.p.A., priority 1994, dated 1999)
